Here are results for two molecules from patent publication US12721835B2, “Anticoccidial composition comprising violacein, and use thereof” (CJ CHEILJEDANG CORPORATION, priority 2020, dated 2026).

The test system of assay [1] is Eimeria tenella. Briefly: In vivo anticoccidial activity upon single inoculation (broilers, formulated feed). Details: key to ACI: ACI out of 200 = survival% + RWG% − lesion×10 − oocyst index. The note with it: Eimeria tenella infection; for Lesion score: appendix, scale 0-4, 8th day; for Oocyst excretion amount/g: feces day 6-8; for Lesion index: lesion score x 10; for ACI: out of 200 points; for Survival rate after challenge inoculation (%): up to 8th day; for RWG(%): vs non-infected negative control. On the procedure: An in vivo anticoccidial efficacy evaluation test was performed in an animal experiment facility in Gyeongsangnam-do, South Korea. One-day-old female Ross broilers were individually weighed and randomly divided into groups to use in an experiment. Matters and conditions for experimental design were described in Table 2.
A breeding farm was managed according to the Korean poultry breeding management guidelines. Cages and the breeding farm were cleaned and disinfected before starting the test. The temperature of […] and the humidity of 40 to 50% of the breeding farm were maintained, and it was continuously monitored.
For the feed, Korea Feed Al-choi product was used, and each material (diclazuril (Yuhan Corporation YUHAN DICLA product), salinomycin (Cheil Bio Cheilsalino-60 product), violacein (CJ Cheiljedang)) was added to the feed, respectively, at a concentration described in Table 3 below to be self-mixed. Antibiotics and supplements were not used in general feed and mixed feed, and no anticoccidial agent other than each material was added. Broilers were fed ad libitum throughout the experiment period. After putting 15 1-day-age broilers in cages randomly placed for each of the control group or test group and breeding, general feed (Al-choi product) was fed for 7 days, and then the mixed feed prepared above was ingested by dividing by control group or test group. The non-infected negative control group used 1cage, and the infected negative control group and experimental group used 2cage to progress the experiment.
The feed formulation administered to the control group (negative control group or positive control group) and test group and whether coccidiosis was induced by Eimeria tenella were described in Table 3 below.
14-day-old broilers were orally inoculated with 10,000 oocysts (90% sporulated Eimeria tenella oocysts) per individual to induce coccidiosis.
The anticoccidial efficacy by test group designed in Example 1-2 above was shown as an anticoccidial index (ACI), and the anticoccidial index was calculated by Equation 2 below. The ACI score is out of 200 points, and the higher the ACI score, the more excellent the anticoccidial ability, and when it is 120 points or more to less than 140 points, it is determined that it is effective as an anticoccidial material, and when it is 140 points or more to less than 160 points, it is determined that it is excellent as an anticoccidial material, and when it is 160 points or more, it is determined that the anticoccidial effect is very excellent (Luis Miguel De Pablos et al., Anticoccidial activity of maslinic acid against infection with Eimeria tenella in chickens, Parasitol Res, 2010). Anticoccidial index (ACI)=(survival rate after challenge inoculation(%))+(daily weight gain compared to negative control group (RWG,%))−(lesion score×10)−(fecal oocyst excretion amount index) (Equation 2) • 1) Survival rate: the number of dead individuals was recorded daily, and post mortem autopsy was performed to determine a cause of mortality, and the number of individuals who died due to causes other than coccidiosis was excluded. The survival rate (%) up to the 8th day after challenge inoculation was used for anticoccidial index calculation. The measured survival rate was described in Table 4 below. • 2) Daily weight gain: body weight was measured for each cage before challenge inoculation with a protozoan into an individual and at the 7th day after challenge inoculation, and the difference was divided by the number of days to calculate the daily weight gain (ADG, g/d). ‘Daily weight gain compared to the negative control group (RWG, %)’ which was calculated by dividing the daily weight gain (ADG, average daily gain; g/d) of each experimental group by the weight gain (ADG, g/d) of the non-infected negative control group and multiplying by 100 was used for anticoccidial index calculation. […]

The test system of assay [2] is Eimeria tenella. Briefly: Cell invasion inhibition of protozoa in MDBK cells (ITS-1 PCR). In kind it is cell-based. The note with it: read-out: Cell invasion inhibitory effect of protozoa (%). On the procedure: In the present example, using MDBK cell line which is a representative animal cell known to cause Eimeria infection and propagation, the inhibition ability of intracellular protozoan invasion and intracellular protozoal propagation of the violacein was investigated.
100,000 MDBK cells (purchased from ATCC) were aliquoted in a 24-well plate, and then incubated at a temperature of 37° C. for 12 hours. The protozoan of Eimeria tenella was obtained similar to the method of Example 3 above. 200,000 protozoa per one well were added to wells in which cells were aliquoted, and each material (violacein and anticoccidial agents, salinomycin, diclazuril and gallic acid) was treated to the cells by concentration, and cultured at a temperature of 41° C. for 24 hours. A negative control group is a MDBK cell infected by protozoa of Eimeria tenella, and a positive control group means a group in which salinomycin, diclazuril or gallic acid solution was incubated with the Eimeria tenella protozoan. […] After removing the cells and protozoa inside the cells through pipetting, DNA was extracted from the cells, and PCR was performed using E. tenella ITS-1 (Internal transcribed spacer-1) gene-specific primers. The sequences of the used primers were described in Table 9 below.
Ct values before/after washing for each material were compared and corrected with the ΔCt value of the negative control group to calculate the cell invasion inhibition rate (%) of the protozoa through treatment of each material, and the result was shown in FIG. 3 and Table 10 below.

In a further assay the test system is Eimeria maxima. Briefly: Protozoan (sporozoite) direct killing effect. The format is cell-based. The note with it: tested 1 to 500 ppm, vs PBS control. On the procedure:
(§1) In the present example, protozoan (sporozoite) direct killing ability evaluation was conducted against 3 representative Eimeria kinds known to be infected in most farms (E. tenella, E. acervulina, E. maxima).
(§2) A certain amount of oocysts of each coccidial protozoan was put in a tube containing glass beads and pulverized, and then to remove the crushed oocyst cell wall and other debris, internal sporocysts were purified using the percoll density gradient, and washed with PBS solution. A reagent comprising sodium taurocholic acid (Sigma aldrich, USA) and trypsin (Gibco, USA), respectively, was treated to sporocysts of Eimeria tenella, Eimeria acervulina and Eimeria maxima for excystation of the internal sporozoites, and they were incubated, and then they were washed with PBS solution once and the protozoa were obtained.
(§3) After reacting the violacein and anticoccidial agents, salinomycin, diclazuril and gallic acid (hereinafter, material) with 3 kinds of Eimeria protozoa at various concentrations of 1 to 500 ppm, respectively, only alive protozoa (sporozoites) were counted through microscopic observation. […]

The subject of assay [3] is Eimeria tenella. Put plainly: Protozoan (sporozoite) direct killing effect. In kind it is cell-based. The note with it: tested 1 to 500 ppm, vs PBS control. How it is done: as §1, §2, §3
Another assay has as its system Eimeria acervulina. Briefly: Protozoan (sporozoite) direct killing effect. The format is cell-based. The note with it: tested 1 to 500 ppm, vs PBS control. On the procedure: as §1, §2, §3

For the molecule `CC[C@@H](C(=O)[C@@H](C)[C@@H](O)[C@H](C)[C@@H]1O[C@@H]([C@@H](CC)C(=O)O)CC[C@@H]1C)[C@H]1O[C@]2(C=C[C@@H](O)[C@]3(CC[C@@](C)([C@H]4CC[C@](O)(CC)[C@H](C)O4)O3)O2)[C@H](C)C[C@@H]1C` [Salinomycin, salinomycin, reference compound], in the assay with Eimeria tenella [1] (feed 60 ppm), the “ADG(g/d) after challenge inoculation” value came to 56 g/day, the Oocyst index is 10, the Lesion score stood at 2.6 and the Oocyst excretion amount/g was 1.3e+08 g⁻¹. Further, in the assay on Eimeria tenella [1] (feed 60 ppm), the Lesion index stood at 26, the ACI is reported as 139, the “Survival rate after challenge inoculation (%)” value (“Survival rate … (%)” below) amounted to 87% and the “RWG(%)” value was found to be 88%. Further, in the assay on Eimeria tenella [2] (MDBK, 24 h), the inhibition at 5 ppm turned out to be 50.1% and the inhibition at 10 ppm was determined as 56.4%. Besides, the “Minimum concentration for killing 50% protozoa (sporozoites) (ppm)” value with Eimeria maxima was 500 ppm. Also, the “Minimum concentration for killing 50% protozoa (sporozoites) (ppm)” value in the assay with Eimeria tenella [3] was 500 ppm. Moreover, the “Minimum concentration for killing 50% protozoa (sporozoites) (ppm)” value in the assay with Eimeria acervulina was 250 ppm.
For `O=C1N=c2ccccc2=C1c1cc(-c2c[nH]c3ccc(O)cc23)[nH]c1O` [Violacein, 3-(2-(5-Hydroxyindol-3-yl)-5-oxo-2-pyrrolin-4-ylidene)-2-indolinone], in the assay on Eimeria tenella [1] (feed 10 ppm), the “ADG(g/d) after challenge inoculation” value amounted to 60 g/day, the Oocyst index is given as 10, the Lesion score was determined as 2.1 and the Oocyst excretion amount/g came out at 1.3e+08 g⁻¹. In the assay with Eimeria tenella [1] (feed 10 ppm), the Lesion index is given as 21, the ACI is 162, the “Survival rate … (%)” value worked out at 100% and the “RWG(%)” value is reported as 94%. For the same molecule, in the assay with Eimeria tenella [1] (feed 40 ppm), the “ADG(g/d) after challenge inoculation” value amounted to 58 g/day, the Oocyst index was 10, the Lesion score worked out at 2.7 and the Oocyst excretion amount/g worked out at 9e+07 g⁻¹. In the assay on Eimeria tenella [1] (feed 40 ppm), the Lesion index was 27, the ACI was 145, the “Survival rate … (%)” value was 90% and the “RWG(%)” value came out at 91%. In the assay with Eimeria tenella [2] (MDBK cells, 0.5 ppm, 41° C. 24 hours), the inhibition at 0.5 ppm is 59.5%. In addition, in the assay on Eimeria tenella [2] (MDBK cells, 1 ppm, 41° C. 24 hours), the inhibition at 1 ppm was 78.6%. Also, the “Minimum concentration for killing 50% protozoa (sporozoites) (ppm)” value in the assay with Eimeria maxima amounted to 5 ppm. In addition, the “Minimum concentration for killing 50% protozoa (sporozoites) (ppm)” value in the assay on Eimeria tenella [3] turned out to be 0.63 ppm. Further, the “Minimum concentration for killing 50% protozoa (sporozoites) (ppm)” value in the assay on Eimeria acervulina was found to be 3.9 ppm.
